Data taken from patent publication US11136337B2, “Pyrazole- and indazole-substituted oxadiazolopyridine derivatives for use as ghrelin O-acyl transferase (GOAT) inhibitors” (Boehringer Ingelheim International GmbH, priority 2018, dated 2021).

The molecules below were run against human GOAT (Homo sapiens (Human), UniProt Q96T53) (assay: Determination of hGOAT activity in HEK293 cells after incubation with test compound (acyl-ghrelin ELISA)). Details: HEK293 cells stably expressing human GOAT and preproghrelin; 5 h incubation with octanoate-BSA; acyl-ghrelin in medium by ELISA.
Chain of human GOAT (Q96T53 whole entry): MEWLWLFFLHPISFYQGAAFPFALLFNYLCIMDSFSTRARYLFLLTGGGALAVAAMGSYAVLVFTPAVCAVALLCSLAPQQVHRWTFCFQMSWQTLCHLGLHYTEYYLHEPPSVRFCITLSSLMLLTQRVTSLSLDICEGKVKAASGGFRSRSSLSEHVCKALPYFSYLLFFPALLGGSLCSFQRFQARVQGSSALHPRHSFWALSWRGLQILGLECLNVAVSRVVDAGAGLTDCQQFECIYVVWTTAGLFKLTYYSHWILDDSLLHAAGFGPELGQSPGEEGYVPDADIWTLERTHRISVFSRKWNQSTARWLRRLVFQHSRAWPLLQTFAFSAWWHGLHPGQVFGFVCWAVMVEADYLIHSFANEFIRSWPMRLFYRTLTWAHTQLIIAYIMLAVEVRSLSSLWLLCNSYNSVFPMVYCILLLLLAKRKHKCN
Type: cell-based
Protocol: Determination of hGOAT Activity in HEK293 Cells after Incubation with Test Compound
HEK293 cells stably transfected with two expression vectors, one coding for preproghrelin cDNA and a second for the expression of human GOAT cDNA are used as a cellular model. After feeding the cells with octanoic acid for 5 hours, acyl-ghrelin is measured in cell culture medium by an ELISA procedure.
Cellline: Hek293 hGOAT/PPGhrl Clone #1B8Sodium octanoate, Sigma, Cat.-No. C5038
BD Poly-D-Lysin 384-well Plates, black-clear polystyrene BD Bioscience Cat.-No. […] ELISA human acylated Ghrelin Kit purchased from Bertin Pharman (detailed composition of buffers e.g. wash-puffer, ELISA buffer not known)
Cells are plated with a density of 5000 cells/well in 384-well poly-D-lysin plates and incubated for 1 day at 37° C., 5% CO2 in DMEM medium, 10% FCS, 1×NEAA, Puromycin (0.5 μg/ml) and G418 (1 mg/ml). Then the medium is changed to a identical medium without FCS and containing Octanoate-BSA (final concentration 100 μM each) and compound in DMSO (final DMSO concentration 0.3%). After incubation for 5 hours acylghrelin in the medium is measured by ELISA.
The medium sample is diluted 1:25 in Elisa buffer, a 25 μl aliquot is transferred to a 384-well ELISA plate previously washed 4 times with 100 μL wash buffer, and 25 μl tracer-solution is added. After incubation overnight (˜20 h) at 4° C. temperature the plate is washed 4 times with 100 μl wash-buffer per well. Finally 50 μl Ellman's reagent is added to each well and the plate is incubated in the dark for 20 minutes. The absorbance is measured at 405 nm in an Envision multilabel reader and the amount of acylated ghrelin is calculated according to a acylated ghrelin standard curve provided in the same plate.
The analysis of the data is performed by calculation of the percentage of acyl-ghrelin produced in the presence of test compound compared to the amount of acyl-ghrelin produced in the vehicle control samples. An inhibitor of the GOAT enzyme will give values between 100% CTL (no inhibition) and 0% CTL (complete inhibition).
IC50 values are calculated with Assay Explorer or other suited software based on curve fitting of results of 8 different compound concentrations.

Row | Compound | IC50 [nM]
1 | Cc1nc2nonc2c(N)c1Cn1ccc(-c2ccc(C#N)c(F)c2)n1 [Example 4.13] | 0.38
2 | Cc1nc2nonc2c(N)c1Cn1ccc(-c2ccccc2F)n1 [Example 2.1, 6-{[3-(2-Fluorophenyl)-1H-pyrazol-1-yl]methyl}-5-methyl-[1,2,5]oxadiazolo[3,4-b]pyridin-7-amine] | 0.035
3 | Cc1nc2nonc2c(N)c1Cn1ccc(-c2c[nH]nc2C(F)(F)F)n1 [Example 4.2] | 0.11
4 | Cc1nc2nonc2c(N)c1Cn1ccc(-c2ccnn2C)n1 [Example 4.14] | 0.2
5 | Cc1nc2nonc2c(N)c1Cn1ccc(C(=O)N2CCC(O)(C(F)(F)F)C2)n1 (stereo not drawn) [Example 7.3] | 5.1
6 | Cc1nc2nonc2c(N)c1Cn1ccc(-c2c(C)noc2C)n1 [Example 4.4] | 0.29
7 | Cc1nc2nonc2c(N)c1Cn1nccc1-c1ccccc1F [Example 2.3] | 0.28
8 | Cc1nc2nonc2c(N)c1Cn1cc(Br)c(C(F)(F)F)n1 [Example 1.7, 6-{[4-Bromo-3-(trifluoromethyl)-1H-pyrazol-1-yl]methyl}-5-methyl-[1,2,5]oxadiazolo[3,4-b]pyridin-7-amine] | 0.6
9 | Cc1nc2nonc2c(N)c1Cn1cc(-c2cnn(C)c2)cn1 [Example 4.16] | 3.6
10 | Cc1nc2nonc2c(N)c1Cn1cc2cc(C#N)ccc2n1 [Example 1.9] | 4.4
11 | Cc1nc2nonc2c(N)c1Cn1cc(Br)cn1 [Example 2.6] | 4.4
12 | Cc1nc2nonc2c(N)c1Cn1cc2ccccc2n1 [Example 6.1, 6-[(2H-Indazol-2-yl)methyl]-5-methyl-[1,2,5]oxadiazolo[3,4-b]pyridin-7-amine] | 0.69
13 | Cc1nc2nonc2c(N)c1Cn1ccc(-c2cnoc2)n1 [Example 4.5] | 3.8
14 | CCOC(=O)c1cnn(Cc2c(C)nc3nonc3c2N)c1 [Example 1.1, Ethyl 1-({7-amino-5-methyl-[1,2,5]oxadiazolo[3,4-b]pyridin-6-yl}methyl)-1H-pyrazole-4-carboxylate] | 1.7
15 | Cc1nc2nonc2c(N)c1Cn1cc(-c2ccc(C#N)cc2)cn1 [Example 1.2] | 1.6
16 | Cc1nc2nonc2c(N)c1Cn1cc(-c2cccc(S(C)(=O)=O)c2)c(C(F)(F)F)n1 [Example 3.1, 6-{[4-(3-Methanesulfonylphenyl)-3-(trifluoromethyl)-1H-pyrazol-1-yl]methyl}-5-methyl-[1,2,5]oxadiazolo[3,4-b]pyridin-7-amine] | 3.3
17 | Cc1nc2nonc2c(N)c1Cn1ccc(-c2cn(C)c3ncccc23)n1 [Example 4.11] | 0.19
18 | Cc1nc2nonc2c(N)c1Cn1ccc(-c2cccc(C(F)(F)F)n2)n1 [Example 5.1, 5-Methyl-6-({3-[6-(trifluoromethyl)pyridin-2-yl]-1H-pyrazol-1-yl}methyl)-[1,2,5]oxadiazolo[3,4-b]pyridin-7-amine] | 0.028
19 | Cc1nc2nonc2c(N)c1Cn1ccc(-c2cncn2C)n1 [Example 4.7] | 0.37
20 | Cc1nc2nonc2c(N)c1Cn1ccc(C(=O)N2CCC(F)(F)C2)n1 [Example 7.1, 6-{[3-(3,3-Difluoropyrrolidine-1-carbonyl)-1H-pyrazol-1-yl]methyl}-5-methyl-[1,2,5]oxadiazolo[3,4-b]pyridin-7-amine] | 0.84
21 | Cc1nc2nonc2c(N)c1Cn1ccc(NC(=O)C(NC(=O)OCc2ccccc2)C(C)C)n1 (stereo not drawn) [Example 8.1, Benzyl N-(1-{[1-({7-amino-5-methyl-[1,2,5]oxadiazolo[3,4-b]pyridin-6-yl}methyl)-1H-pyrazol-3-yl]carbamoyl}-2-methylpropyl)carbamate] | 3.2

Row | Compound | IC50 [nM]
22 | Cc1nc2nonc2c(N)c1Cn1ccc(N2CCCS2(=O)=O)n1 [Example 2.5] | 0.18
23 | Cc1nc2nonc2c(N)c1Cn1cc(NC(=O)OC(C)(C)C)cn1 [Example 1.5] | 3.3
24 | Cc1nc2nonc2c(N)c1Cn1cc(C(C)(C)C)cn1 [Example 1.4] | 0.51
25 | Cc1nc2nonc2c(N)c1Cn1ccc(-c2cccc(S(C)(=O)=O)c2)n1 [Example 4.8] | 0.096
26 | Cc1nc2nonc2c(N)c1Cn1cc(-c2ccc(F)nc2)c(C(F)(F)F)n1 [Example 3.2] | 1.2
27 | Cc1nc2nonc2c(N)c1Cn1ccc(-c2cncs2)n1 [Example 4.3] | 0.12
28 | Cc1nc2nonc2c(N)c1Cn1ccc(-c2nn(C)c3ccccc23)n1 [Example 4.9] | 0.04
29 | Cc1nc2nonc2c(N)c1Cn1ccc(C=O)n1 [Example 2.4, 1-({7-amino-5-methyl-[1,2,5]oxadiazolo[3,4-b]pyridin-6-yl}methyl)-1H-pyrazole-3-carbaldehyde] | 1.7
30 | Cc1nc2nonc2c(N)c1Cn1ccc(-c2ccc(S(C)(=O)=O)cc2F)n1 [Example 4.12] | 0.076
31 | Cc1nc2nonc2c(N)c1Cn1cc(C(F)(F)F)cn1 [Example 1.8] | 1.4
32 | Cc1nc2nonc2c(N)c1Cn1ccc(-c2ccco2)n1 [Example 4.6] | 0.17
33 | Cc1nc2nonc2c(N)c1Cn1cc(-c2ccn[nH]2)cn1 [Example 4.15] | 5.6
34 | Cc1nc2nonc2c(N)c1Cn1ccc(-c2cnn3cccnc23)n1 [Example 4.10] | 0.15
35 | Cc1nc2nonc2c(N)c1Cn1ccc(C(=O)N2CCC(F)(F)CC2)n1 [Example 7.2] | 3.5
36 | Cc1nc2nonc2c(N)c1Cn1cc(-c2c(C)noc2C)cn1 [Example 1.3] | 2.2
37 | Cc1nc2nonc2c(N)c1Cn1cc(-c2ccnn2C)c(C(F)(F)F)n1 [Example 3.3] | 2.6
38 | Cc1nc2nonc2c(N)c1Cn1ccc(-c2cccnc2F)n1 [Example 4.1, 6-{[3-(2-Fluoropyridin-3-yl)-1H-pyrazol-1-yl]methyl}-5-methyl-[1,2,5]oxadiazolo[3,4-b]pyridin-7-amine] | 0.034
39 | COC(=O)c1ccn(Cc2c(C)nc3nonc3c2N)n1 [Example 1.6, Methyl 1-({7-amino-5-methyl-[1,2,5]oxadiazolo[3,4-b]pyridin-6-yl}methyl)-1H-pyrazole-3-carboxylate] | 0.96
40 | Cc1nc2nonc2c(N)c1Cn1cc(-c2cnn(C)c2)c(C(F)(F)F)n1 [Example 3.4] | 5.1
41 | Cc1nc2nonc2c(N)c1Cn1cc(-c2ccccc2F)cn1 [Example 2.2] | 0.23
42 | Cc1nc2nonc2c(N)c1Cn1ccc(CN2CCC(F)(F)CC2)n1 [Example 9.1, 6-({3-[(4,4-Difluoropiperidin-1-yl)methyl]-1H-pyrazol-1-yl}methyl)-5-methyl-[1,2,5]oxadiazolo [3,4-b]pyridin-7-amine] | 7.4
